Laboratory results published in US10342760B2, “Lipid nanoparticles for transfection and related methods” (The University of British Columbia, priority 2013, dated 2019).

Test: Apparent pKa of ionizable cationic lipid
Format: physicochemical

CCCCCCCCC1CC1CCCCCCCCC(CCCCCCCCC1CC1CCCCCCCC)OC(=O)CCCN(C)C (stereo not shown) [Cationic Lipid A, 1,17-bis(2-octylcyclopropyl)heptadecan-9-yl-4-(dimethylamino)butanoate]
pKa: 6.3
